Reference: US20090068646A1, “METHODS AND KITS FOR DETECTING MUTATIONS” (PROMEGA CORPORATION, priority 2004, published 2009)
Where two headings read alike, the source gives them in different places.

Experiments:
Type in all cases: in vivo, C75BL/6 mice
[1] = tested on: mononucleotide repeats; conditions: 50 mg/kg intraperitoneal, liver DNA
Procedure: (§1) Treatment of mice used in paraquat studies. […] mice were housed and inbred at the University of Wisconsin, with an average life span 30 months. Four groups of three mice were included in the study: 5-month old mice (young control or YC); 5-month old mice treated with paraquat; 24-month old mice (old age); and 24-month old mice treated with paraquat. Paraquat-treated animals received a single intraperitoneal injection of 50 mg/kg body weight dissolved in PBS 24 hours after their last feeding. Each mouse was sacrificed by cervical dislocation.
(§2) Tissue Preparation, DNA Extraction and Quantification. The entire liver from each mouse was dissected, washed with PBS, placed in a 1.5 ml Ependorf tube, snap frozen in liquid nitrogen, and stored at −80° C. DNA was prepared from the mouse liver tissue by using the DNA-IQ Tissue and Hair Extraction Kit (Promega Corporation, Madison, Wis.) and was quantified using the PicoGreen dsDNA Quantitative Kit (Molecular Probes, Eugene, Oreg.) following manufacturers protocols.
Detection of Mutations in Microsatellites using small pool PCR. […] The stability of four short mononucleotide repeats (mBAT-24, mBAT-26, mBat-30, mBAT-37) and three extended mononucleotide repeats (mBAT-59, mBAT-64 and mBAT-67) were evaluated.
SP-PCR was performed for mutation analysis using 1-2 copies of genomic DNA (6-12 pg). PCR cycles and conditions are the same as described above except that the annealing temperature was 58° C.
Identification of PCR Products. Separation and detection of amplified fragments was performed on an ABI PRISM® 3100 Genetic Analyzer following the manufacturer's protocol (Applied Biosystems, Foster City, Calif.). Data was analyzed with the GeneScan and Genotyper computer software packages (Applied Biosystems).
Statistical Analysis. Statistical analysis was done using the statistical Package Sigma Stat version 3, where P value was determined by using one-way ANOVA for each specific group, using Holm-Sidak method did comparisons between the groups.

[2] = tested on: mtDNA; conditions: old age paraquat-treated group, three mice
Procedure: as §1, §2
mtDNA Deletion Detection. Based on the mouse mtDNA sequence, four fluorescence labeled primer pairs were designed to detect both wildtype sequences and mtDNA deletions.
PCR Conditions. […]
Identification of PCR Products. […] Data was analyzed with the GeneScan and Genotyper computer software packages (Applied Biosystems).

[3] = tested on: mononucleotide repeats; conditions: for Mutation Freq / # Mutants: 50 mg/kg intraperitoneal, liver DNA
[4] = marker mBat-24, Old w/Paraquat (24-month old mice)
[5] = marker mBat-26, Young w/Paraquat (5-month old mice)
[6] = marker mBat-30, Old w/Paraquat (24-month old mice)
[7] = marker mBat-30, Young w/Paraquat (5-month old mice)
[8] = marker mBat-59, Old w/Paraquat (24-month old mice)
[9] = marker mBat-64, Young w/Paraquat (5-month old mice)
[10] = marker mBat-67, Young w/Paraquat (5-month old mice)
[11] = marker mBat-24, Young w/Paraquat (5-month old mice)
[12] = marker mBat-26, Old w/Paraquat (24-month old mice)
[13] = marker mBat-37, Old w/Paraquat (24-month old mice)
[14] = marker mBat-37, Young w/Paraquat (5-month old mice)
[15] = marker mBat-49, Old w/Paraquat (24-month old mice)
[16] = marker mBat-51a, Old w/Paraquat (24-month old mice)
[17] = marker mBat-51b, Old w/Paraquat (24-month old mice)
[18] = marker mBat-52, Old w/Paraquat (24-month old mice)
[19] = marker mBat-59, Young w/Paraquat (5-month old mice)
[20] = marker mBat-61a, Old w/Paraquat (24-month old mice)
[21] = marker mBat-64, Old w/Paraquat (24-month old mice)
[22] = marker mBat-66, Old w/Paraquat (24-month old mice)
[23] = marker mBat-66, Young w/Paraquat (5-month old mice)
[24] = marker mBat-67, Old w/Paraquat (24-month old mice)
[25] = paraquat-treated old age group, loci mBAT-59, mBAT-64, mBAT-66 or mBAT-67 combined

**Q.** For C[n+]1ccc(-c2cc[n+](C)cc2)cc1 [Paraquat], which “# Mutants” value [1, 4] is on record?
**A.** 0

**Q.** What about the “Mutation Freq” value [1, 5] of the same compound?
**A.** 0.000

**Q.** And the “Mutation Freq” value [1, 6]?
**A.** 0.000

**Q.** What about the “# Mutants” value [1, 7] of the same compound?
**A.** 0

**Q.** What about the “# Mutants” value [1, 8] of the same compound?
**A.** 6

**Q.** What about the “Mutation Freq” value [1, 9] of the same compound?
**A.** 0

**Q.** And the “Mutation Freq” value [1, 10]?
**A.** 0

**Q.** And the “mice showing Δ-mtDNA4977” value [2]?
**A.** All three

**Q.** And the “Mutation Freq” value [3, 4]?
**A.** 0.000

**Q.** What about the “# Mutants” value [3, 11] of the same compound?
**A.** 1

**Q.** And the “Mutation Freq” value [3, 11]?
**A.** 0.002

**Q.** And the “# Mutants” value [3, 12]?
**A.** 0

**Q.** And the “Mutation Freq” value [3, 12]?
**A.** 0.000

**Q.** What about the “# Mutants” value [3, 5] of the same compound?
**A.** 0

**Q.** What about the “# Mutants” value [3, 6] of the same compound?
**A.** 0

**Q.** And the “Mutation Freq” value [3, 7]?
**A.** 0.000

**Q.** What about the “# Mutants” value [3, 13] of the same compound?
**A.** 0

**Q.** And the “Mutation Freq” value [3, 13]?
**A.** 0.000

**Q.** What about the “# Mutants” value [3, 14] of the same compound?
**A.** 1

**Q.** And the “Mutation Freq” value [3, 14]?
**A.** 0.001

**Q.** And the “# Mutants” value [3, 15]?
**A.** 0

**Q.** What about the “Mutation Freq” value [3, 15] of the same compound?
**A.** 0.000

**Q.** What about the “# Mutants” value [3, 16] of the same compound?
**A.** 0

**Q.** What about the “Mutation Freq” value [3, 16] of the same compound?
**A.** 0.000

**Q.** What about the “# Mutants” value [3, 17] of the same compound?
**A.** 0

**Q.** What about the “Mutation Freq” value [3, 17] of the same compound?
**A.** 0.000

**Q.** What about the “# Mutants” value [3, 18] of the same compound?
**A.** 0

**Q.** And the “Mutation Freq” value [3, 18]?
**A.** 0.000

**Q.** What about the “Mutation Freq” value [3, 8] of the same compound?
**A.** 0.013

**Q.** What about the “# Mutants” value [3, 19] of the same compound?
**A.** 4

**Q.** And the “Mutation Freq” value [3, 19]?
**A.** 0

**Q.** And the “# Mutants” value [3, 20]?
**A.** 2

**Q.** What about the “Mutation Freq” value [3, 20] of the same compound?
**A.** 0.005

**Q.** And the “# Mutants” value [3, 21]?
**A.** 8

**Q.** What about the “Mutation Freq” value [3, 21] of the same compound?
**A.** 0.019

**Q.** What about the “# Mutants” value [3, 9] of the same compound?
**A.** 1

**Q.** What about the “# Mutants” value [3, 22] of the same compound?
**A.** 8

**Q.** What about the “Mutation Freq” value [3, 22] of the same compound?
**A.** 0.018

**Q.** And the “# Mutants” value [3, 23]?
**A.** 3

**Q.** And the “Mutation Freq” value [3, 23]?
**A.** 0

**Q.** What about the “# Mutants” value [3, 24] of the same compound?
**A.** 20

**Q.** What about the “Mutation Freq” value [3, 24] of the same compound?
**A.** 0.051

**Q.** And the “# Mutants” value [3, 10]?
**A.** 1

**Q.** What about the “mutations detected in loci mBAT-24, mBAT-26, mBat-30, or mBAT-37” value ([3]; old paraquat-treated group, short mononucleotide repeats combined) of the same compound?
**A.** no mutations out of 1608 alleles

**Q.** And the “mutant alleles / alleles assayed” value [3, 25]?
**A.** 25/1649

**Q.** What about the “mutations in mononucleotide repeat alleles assayed” value [3, 25] of the same compound?
**A.** over 1.8%
